The subject of one assay is TNFα. Put plainly: cells. Type of assay: cell-based, human. The following applies: Homo sapiens, Monocyte, LPS-stimulated human monocytes, TNFα content; read-out: EC50 TNF.
In another assay the target is IRAK4 enzyme (Homo sapiens (Human), UniProt Q9NWZ3). Description: biochemical. Type of assay: biochemical. The following applies: IRAK4 enzyme, TR-FRET (HTRF), 500 μM ATP.

This passage reports EC50 and IC50 results from patent US10336762B2 (priority 2017, dated 2019).

pEC50, pIC50: −log10 of the molar value.

IRAK4 enzyme, sequence (Q9NWZ3 whole entry): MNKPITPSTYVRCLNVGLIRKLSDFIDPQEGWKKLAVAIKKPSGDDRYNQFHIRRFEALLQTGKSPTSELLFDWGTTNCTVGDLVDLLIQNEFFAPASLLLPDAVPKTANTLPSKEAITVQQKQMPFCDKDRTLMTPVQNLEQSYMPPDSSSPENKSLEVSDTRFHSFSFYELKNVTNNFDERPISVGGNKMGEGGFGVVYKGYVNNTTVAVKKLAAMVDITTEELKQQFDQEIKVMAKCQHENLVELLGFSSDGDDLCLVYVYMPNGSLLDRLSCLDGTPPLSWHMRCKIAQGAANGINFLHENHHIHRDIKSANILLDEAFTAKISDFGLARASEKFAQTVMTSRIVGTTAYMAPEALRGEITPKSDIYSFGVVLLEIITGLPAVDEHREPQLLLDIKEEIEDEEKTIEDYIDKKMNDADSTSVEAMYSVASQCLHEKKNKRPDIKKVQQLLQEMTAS

Regarding `N#Cc1cnn2c(-c3cc(N[C@H]4CCC[C@@H](O)C4)c(C(=O)NC4CC4)cn3)ccc2c1` [Example 514, 6-(3-cyanopyrrolo[1,2-b]pyridazin-7-yl)-N-cyclopropyl-4-(((1S,3R)-3-hydroxy-cyclohexyl)amino) nicotinamide], the pEC50 with TNFα is 6.67. Further, the pIC50 at IRAK4 enzyme was 8.05.

In the case of `COC(C)(C)[C@H](F)CNC(=O)c1cnc(-c2ccc3cc(C#N)cnn23)cc1N[C@H]1CCC[C@@H](O)C1` [Example 518, 6-(3-cyanopyrrolo[1,2-b]pyridazin-7-yl)-N-((R)-2-fluoro-3-methoxy-3-methylbutyl)-4-(((1S,3R)-3-hydroxycyclohexyl)amino) nicotinamide], in the assay with TNFα, the pEC50 was 7.89. In addition, on IRAK4 enzyme, the pIC50 was more than 9.00.

On to `N#Cc1cnn2c(-c3cc(Nc4cnn(CC(F)F)c4)c(C(=O)N[C@H]4CC[C@H](NC(=O)C5CC5)CC4)cn3)ccc2c1` [Example 519, 6-(3-cyanopyrrolo[1,2-b]pyridazin-7-yl)-N-((1r,4r)-4-(cyclopropane-carboxamido)cyclohexyl)-4-((1-(2,2-difluoroethyl)-1H-pyrazol-4-yl)amino) nicotinamide], for which the pEC50 in the assay with TNFα is 7.47. The negative logarithm of the IC50 (pIC50) on IRAK4 enzyme is more than 9.00.

Consider `CC(C)(O)[C@H](F)CNC(=O)c1cnc(-c2ccc3cc(C#N)cnn23)cc1N[C@H]1CC[C@@H](O)C1` [Example 520, 6-(3-cyanopyrrolo[1,2-b]pyridazin-7-yl)-N-((R)-2-fluoro-3-hydroxy-3-methylbutyl)-4-(((1S,3R)-3-hydroxycyclopentyl)amino)nicotinamide], for which the pEC50 in the assay on TNFα is 7.35. Also, the pIC50 at IRAK4 enzyme is more than 9.00.

With `CC(C)Nc1cc(-c2ccc3cc(C#N)cnn23)ncc1C(=O)NC1CCC(S(C)(=O)=O)CC1` (stereo not drawn) [Example 521, 6-(3-cyanopyrrolo[1,2-b]pyridazin-7-yl)-4-(iso-propylamino)-N-(4-(methylsulfonyl)cyclohexyl) nicotinamide], the pEC50 in the assay with TNFα is 6.14. For the same molecule, the pIC50 against IRAK4 enzyme is 7.21.

Consider `CC(C)(O)[C@H](F)CNC(=O)c1cnc(-c2ccc3cc(C#N)cnn23)cc1N[C@H]1CC[C@H](O)C1` [Example 522, 6-(3-cyanopyrrolo[1,2-b]pyridazin-7-yl)-N-((R)-2-fluoro-3-hydroxy-3-methylbutyl)-4-(((1S,3S)-3-hydroxycyclopentyl)amino) nicotinamide], for which the pEC50 with TNFα was 7.64. This molecule also showed a pIC50 against IRAK4 enzyme of more than 9.00.

On to `CC(C)(O)[C@H](F)CNC(=O)c1cnc(-c2ccc3cc(C#N)cnn23)cc1NC1CCC(S(C)(=O)=O)CC1` (stereo partly drawn) [Example 523, (R)-6-(3-cyanopyrrolo[1,2-b]pyridazin-7-yl)-N-(2-fluoro-3-hydroxy-3-methylbutyl)-4-((4-(methylsulfonyl)cyclohexyl)amino)nicotinamide], for which the negative-log EC50 (pEC50) in the assay with TNFα was 6.39. Also, the pIC50 against IRAK4 enzyme was 7.85.

Turning to `CC(C)(O)[C@H](F)CNC(=O)c1cnc(-c2ccc3cc(C#N)cnn23)cc1N[C@H]1CCC[C@@H](N2CCOCC2)C1` [Example 524, 6-(3-cyanopyrrolo[1,2-b]pyridazin-7-yl)-N-((R)-2-fluoro-3-hydroxy-3-methylbutyl)-4-(((1S,3R)-3-morpholinocyclohexyl)amino)nicotinamide], in the assay on TNFα, the pEC50 is 7.01. On IRAK4 enzyme, the pIC50 was 9.00.

Consider `N#Cc1cnn2c(-c3cc(NC4COC4)c(C(=O)N[C@H]4CC[C@H](NC(=O)C5CC5)CC4)cn3)ccc2c1` [Example 526, 6-(3-cyanopyrrolo[1,2-b]pyridazin-7-yl)-N-((1r,4r)-4-(cyclopropane-carboxamido)cyclohexyl)-4-(oxetan-3-ylamino) nicotinamide], for which, in the assay on TNFα, the pEC50 is 7.00. This molecule also had a pIC50 against IRAK4 enzyme of 9.00.

`N#Cc1cnn2c(-c3cc(N[C@H]4CCC[C@@H](O)C4)c(C(=O)N[C@H]4CC[C@H](NC(=O)C5CC5)CC4)cn3)ccc2c1` [Example 527, 6-(3-cyanopyrrolo[1,2-b]pyridazin-7-yl)-N-((1r,4S)-4-(cyclopropane-carboxamido)cyclohexyl)-4-(((1S,3R)-3-hydroxycyclo-hexyl)amino)nicotinamide]: the pEC50 in the assay on TNFα is 7.80. This molecule also had a pIC50 against IRAK4 enzyme of more than 9.00.

Consider `CC(C)(F)[C@H](F)CNC(=O)c1cnc(-c2ccc3cc(C#N)cnn23)cc1N[C@H]1CCC[C@@H](O)C1` [Example 530, 6-(3-cyanopyrrolo[1,2-b]pyridazin-7-yl)-N-((R)-2,3-difluoro-3-methylbutyl)-4-(((1S,3R)-3-hydroxy-cyclohexyl)amino)nicotinamide], for which the pEC50 with TNFα was 8.00. The molecule further showed a pIC50 on IRAK4 enzyme of more than 9.00.

For the molecule `CC(C)Nc1cc(-c2ccc3cc(C#N)cnn23)ncc1C(=O)NC[C@@H](F)C(C)(C)F` [Example 531, (R)-6-(3-cyanopyrrolo[1,2-b]pyridazin-7-yl)-N-(2,3-difluoro-3-methylbutyl)-4-(isopropylamino)nicotinamide], the pEC50 in the assay on TNFα was 7.47. At IRAK4 enzyme, this molecule had a pIC50 of more than 9.00.

Regarding `CC(=O)N[C@@H]1CCC[C@H](Nc2cc(-c3ccc4cc(C#N)cnn34)ncc2C(=O)NC[C@@H](F)C(C)(C)O)C1` [Example 532, 4-(((1S,3R)-3-acetamidocyclohexyl)amino)-6-(3-cyano-pyrrolo[1,2-b]pyridazin-7-yl)-N-((R)-2-fluoro-3-hydroxy-3-methylbutyl) nicotinamide], the pEC50 in the assay on TNFα was 6.91. The pIC50 on IRAK4 enzyme was 9.00.

As for `CC(C)(O)[C@H](F)CNC(=O)c1cnc(-c2ccc3cc(C#N)cnn23)cc1N[C@H]1CCC[C@@H](N)C1` [Example 533, 4-(((1S,3R)-3-aminocyclohexyl)amino)-6-(3-cyanopyrrolo[1,2-b]pyridazin-7-yl)-N-((R)-2-fluoro-3-hydroxy-3-methylbutyl)nicotinamide], the pEC50 in the assay on TNFα was 7.15. This molecule had a pIC50 on IRAK4 enzyme of more than 9.00.

With `CC(C)(O)[C@H](F)CNC(=O)c1cnc(-c2ccc3cc(C#N)cnn23)cc1N[C@H]1C[C@H](CNC(=O)C2CC2)C1` [Example 534, 6-(3-cyanopyrrolo[1,2-b]pyridazin-7-yl)-4-(((1r,3R)-3-(cyclopropane-carboxamidomethyl)cyclo-butyl)amino)-N-((R)-2-fluoro-3-hydroxy-3-methyl-butyl)nicotinamide], the pEC50 in the assay on TNFα is 7.59. Also, on IRAK4 enzyme, the pIC50 was more than 9.00.

Take `CC(C)(O)[C@H](F)CNC(=O)c1cnc(-c2ccc3cc(C#N)cnn23)cc1N[C@H]1CC[C@](C)(N)CC1` [Example 535, (R)-4-((4-amino-4-methylcyclohexyl)amino)-6-(3-cyanopyrrolo[1,2-b]pyridazin-7-yl)-N-(2-fluoro-3-hydroxy-3-methylbutyl)nicotinamide]: the pEC50 in the assay with TNFα is 6.00. Also, the pIC50 on IRAK4 enzyme was 8.70.

Take `CC(C)(O)[C@H](F)CNC(=O)c1cnc(-c2ccc3cc(C#N)cnn23)cc1N[C@H]1C[C@H](CO)C1` [Example 536, 6-(3-cyanopyrrolo[1,2-b]pyridazin-7-yl)-N-((R)-2-fluoro-3-hydroxy-3-methylbutyl)-4-(((1r,3R)-3-(hydroxymethyl)cyclo-butyl)amino)nicotinamide]: the pEC50 with TNFα was 7.80. This molecule had a pIC50 at IRAK4 enzyme of more than 9.00.

In the case of `CC(C)(O)[C@H](F)CNC(=O)c1cnc(-c2ccc3cc(C#N)cnn23)cc1NC12CCC(C(F)F)(CC1)CC2` [Example 537, (R)-6-(3-cyanopyrrolo[1,2-b]pyridazin-7-yl)-4-((4-(difluoromethyl)bicyclo[2.2.2]octan-1-yl)amino)-N-(2-fluoro-3-hydroxy-3-methylbutyl)nicotinamide], the pEC50 in the assay on TNFα was 7.74. This molecule also showed a pIC50 at IRAK4 enzyme of 9.00.

`CCC(=O)NC[C@H]1C[C@H](Nc2cc(-c3ccc4cc(C#N)cnn34)ncc2C(=O)NC[C@@H](F)C(C)(C)O)C1` [Example 538, 6-(3-cyanopyrrolo[1,2-b]pyridazin-7-yl)-N-((R)-2-fluoro-3-hydroxy-3-methylbutyl)-4-(((1r,3R)-3-(propionamidomethyl)cyclobutyl)amino)nicotin-amide]: the pEC50 with TNFα is 7.30. The molecule further had a pIC50 against IRAK4 enzyme of more than 9.00.

On to `CC(C)OC(=O)NC[C@H]1C[C@H](Nc2cc(-c3ccc4cc(C#N)cnn34)ncc2C(=O)NC[C@@H](F)C(C)(C)O)C1` [Example 539, isopropyl (((1R,3r)-3-((2-(3-cyanopyrrolo[1,2-b]pyridazin-7-yl)-5-(((R)-2-fluoro-3-hydroxy-3-methylbutyl)carbamoyl)pyridin-4-yl)amino)cyclo-butyl)methyl)carbamate], for which the pEC50 in the assay on TNFα is 7.92. This molecule also showed a pIC50 against IRAK4 enzyme of more than 9.00.

In the case of `CCOC(=O)NC[C@H]1C[C@H](Nc2cc(-c3ccc4cc(C#N)cnn34)ncc2C(=O)NC[C@@H](F)C(C)(C)O)C1` [Example 540, ethyl (((1R,3r)-3-((2-(3-cyanopyrrolo[1,2-b]pyridazin-7-yl)-5-(((R)-2-fluoro-3-hydroxy-3-methylbutyl)carbamoyl)pyridin-4-yl)amino)cyclo-butyl)methyl)carbamate], in the assay on TNFα, the pEC50 is 7.92. The pIC50 on IRAK4 enzyme is more than 9.00.

For the molecule `CN(C)C(=O)NC[C@H]1C[C@H](Nc2cc(-c3ccc4cc(C#N)cnn34)ncc2C(=O)NC[C@@H](F)C(C)(C)O)C1` [Example 541, 6-(3-cyanopyrrolo[1,2-b]pyridazin-7-yl)-4-(((1r,3R)-3-((3,3-dimethyl-ureido)methyl)cyclobutyl)amino)-N-((R)-2-fluoro-3-hydroxy-3-methylbutyl) nicotinamide], in the assay with TNFα, the pEC50 is 7.19. At IRAK4 enzyme, this molecule gave a pIC50 of more than 9.00.

Turning to `CC(C)(O)[C@H](F)CNC(=O)c1cnc(-c2ccc3cc(C#N)cnn23)cc1N[C@H]1C[C@H](CNC(=O)C(F)(F)F)C1` [Example 542, 6-(3-cyanopyrrolo[1,2-b]pyridazin-7-yl)-N—((R)-2-fluoro-3-hydroxy-3-methylbutyl)-4-(((1r,3R)-3-((2,2,2-trifluoroacetamido)methyl)cyclobutyl)amino)nicotinamide], the pEC50 in the assay on TNFα was 7.57. Also, the pIC50 against IRAK4 enzyme is more than 9.00.

As to `COC(=O)C12CCCC(Nc3cc(-c4ccc5cc(C#N)cnn45)ncc3C(=O)NC[C@@H](F)C(C)(C)O)(CC1)CC2` [Example 543, (R)-methyl 5-((2-(3-cyano-pyrrolo[1,2-b]pyridazin-7-yl)-5-((2-fluoro-3-hydroxy-3-methylbutyl)carbamoyl)pyridin-4-yl)amino)bicyclo[3.2.2] nonane-1-carboxylate], the pEC50 with TNFα is 7.31. Besides, the pIC50 on IRAK4 enzyme was 8.70.
